We go through two compounds from US20250026741A1, “INHIBITORS OF THE ONCOGENIC SHP2 PHOSPHATASE AND USES THEREOF” (Sanford Burnham Prebys Medical Discovery Institute, priority 2021, published 2025).

The test system of experiment [1] is p-ERK1/2 in MOLM-13 AML cells. Description: Phospho-ERK1/2 immunoblot analysis, MOLM-13. In kind it is cell-based. Particulars: MOLM-13, 3 h treatment; #02 3, 10, 30 μM; RMC-4550 1 μM. The method, then:
Because SHP2 activity is critical for ERK activation, we used phospho-ERK1/2 (p-ERK1/2) as a more direct readout of SHP2 inhibitor efficacy. […] However, a greater effect of #02 was observed after 24 h treatment. […] This p-ERK rebound in MOLM-13 cells treated with RMC-4550 is reminiscent of previously reported data from human hepatoma Hep3B cells treated with SHP099.
Total protein extracts were prepared in modified RIPA lysis buffer (25 mM Tris-HCl, pH 7.4, 10% glycerol, 0.2% Triton™ X-100, 150 mM NaCl, 2 mM Na3VO4, 1 mM EDTA) containing a protease inhibitor cocktail (Roche Applied Science, Indianapolis, IN). Equal amounts of protein were separated on 4-12% (p-ERK1/2 blots) or 4-20% (SHP2 blots) Bis-Tris gels by SDS-PAGE and transferred to nitrocellulose (p-ERK1/2 blots) or 0.2 μm PVDF (SHP2 blots) membranes. Membranes were blocked in 5% dry milk (Bio-Rad, Hercules, CA) in TBS-Tween 20 (0.1% vol/vol; TBS-T) for 1 h at room temperature. Protein-bound membranes were incubated with indicated primary antibody overnight at 4° C. After washing three times with TBS-T, membranes were incubated for 1 h with horseradish peroxidase-conjugated secondary antibody, then visualized by an ECL Prime detection system (GE Healthcare). Immunoblotting experiments were carried out at least three times and representative images are shown. Densitometric quantitation of immunoblots was performed using Image Studio Lite Software. Changes of phosphorylated ERK1/2 to total ERK1/2 rations are expressed as percentage of the vehicle-treated controls. The following antibodies were used: Phospho-Erk1/2 Ab, Cell Signaling, #9101S; total Erk1/2 Ab, Cell Signaling, #9102S; SHP2 Ab, Bethyl, A301-544A, lot #1; GAPDH (14C10) mAb, Cell Signaling, #2118S, lot #14.

Experiment [2] has as its system patient-derived AML cells. Description: Viability of AML patient-derived cells. It is filed as cell-based, human. Particulars: 10 μM, two patient samples, 2 d, 4 d, or 6 d. The source says: Patient-derived AML cells were obtained from Carol Burian and Dr. James Mason (Scripps MD Anderson, La Jolla, CA) under approved IRB protocol 13-6180. Peripheral blood mononuclear cells (PBMCs) were isolated by traditional Ficoll-Paque™ PLUS (17-1440-02, GE Healthcare) centrifugation according to the manufacturer's instructions, and red blood cells were lysed using RBC Lysis Buffer (Alfa Aesar, cat. #J62990). Final PBMCs were resuspended in Bambanker serum-free freezing medium (Wako Pure Chemical Industries, Ltd.) and stored frozen before cell viability was assessed as described below.
Viability of AML, esophageal carcinoma, and TF-1 cells was assessed using the ATP-depletion assay CellTiter-Glo® (Promega). Cells were harvested at 1×10^6/mL to 2×10^6 cells/mL with cell numbers determined by trypan blue using the Countess Cell counter (Thermo Scientific) and resuspended in culture media. 3K cells (in […]) were seeded in a 384-well format white, clear bottom microplate (#781098, Greiner) spotted with test compound or vehicle control (DMSO) using an Echo 555 Liquid Handler. […] Luminescence was read on a Tecan Spark® Multimode Microplate Reader and data analyzed using Graph Pad Prism software.

The test system of experiment [3] is U-937 AML cells harboring G60R oncogenic mutation in SHP2. Description: Cell viability assay, U-937 (SHP2 G60R). It is filed as cell-based. To be noted: U-937 cells (SHP2 G60R), 0.123 to 30 μM, 3 d. The text has this: (§1) Oncogenic gain-of-function mutations in SHP2 drive leukemogenesis in a significant number of leukemia patients. However, due to their unique mechanism of action, the existing SHP2 allosteric inhibitors lack activity against the most common SHP2 oncogenic variants. Thus, we tested whether #02 can inhibit the growth of leukemia cells expressing oncogenic SHP2 variants. […] Using the U-937 AML cell line, which harbors a G60R oncogenic mutation in SHP2, we treated cells with either #02 or RMC-4550 at various concentrations, ranging from 0.123 to 30 μM (FIG. 4A). […] We also assessed the effects of #02 and RMC-4550 on ERK1/2 activation in the SHP2 mutant U-937 cell line. Similar to the immunoblot experiments described above, U-937 AML cells were treated with either vehicle control (DMSO), #02 (1, 3, 10, or 30 μM), or with RMC-4550 (1 μM) for 24 h and processed for p-ERK1/2 immunoblot analysis (FIG. 4B).
Viability of AML, esophageal carcinoma, and TF-1 cells was assessed using the ATP-depletion assay CellTiter-Glo® (Promega). Cells were harvested at 1×10^6/mL to 2×10^6 cells/mL with cell numbers determined by trypan blue using the Countess Cell counter (Thermo Scientific) and resuspended in culture media. […] Luminescence was read on a Tecan Spark® Multimode Microplate Reader and data analyzed using Graph Pad Prism software.

Experiment [4] deals with p-ERK1/2 in U-937 AML cells (SHP2 G60R). As to the kind of experiment: Phospho-ERK1/2 immunoblot analysis, U-937. Particulars: U-937, 24 h; #02 1, 3, 10, 30 μM; RMC-4550 1 μM. It is filed as cell-based.
Description: as §1
Total protein extracts were prepared in modified RIPA lysis buffer (25 mM Tris-HCl, pH 7.4, 10% glycerol, 0.2% Triton™ X-100, 150 mM NaCl, 2 mM Na3VO4, 1 mM EDTA) containing a protease inhibitor cocktail (Roche Applied Science, Indianapolis, IN). […] Densitometric quantitation of immunoblots was performed using Image Studio Lite Software. Changes of phosphorylated ERK1/2 to total ERK1/2 rations are expressed as percentage of the vehicle-treated controls. […]

Experiment [5] deals with MOLM-13 AML cells (expressing WT SHP2). As to the kind of experiment: Cell viability assay (CellTiter-Glo), MOLM-13. It is filed as cell-based. To be noted: regular MOLM-13 cells, 72 h, CRISPR comparison experiment. On the procedure:
(§2) Next, we performed an 11-day colony formation assay with TNBC cells treated with #02 or SHP099 at 5, 10, or 20 μM (FIG. 3D).
Finally, we evaluated the selectivity of our top two compounds, #01 and #02, on MOLM-13 AML cells in which SHP2 was depleted using CRISPR-Cas9 knock-out (KO). High-efficiency Cas9-editing MOLM-13 cells were generated by transducingMOLM-13 cells with a Cas9 lentiviral construct. Stable clones were tested for editing efficiency by performing TIDE analysis (45), and these MOLM13-Cas9 cells were transduced with a lentiviral construct containing an AAVS1 single guide RNA (sgRNA) and an mCherry reporter for bulk-sorting of cells with successful AAVS1 editing. […] Cells were treated with inhibitors at various concentrations (ranging from […] to 58 nM) or vehicle control (DMSO) for 72 h, before cell viability was assessed.
Viability of AML, esophageal carcinoma, and TF-1 cells was assessed using the ATP-depletion assay CellTiter-Glo® (Promega). Cells were harvested at 1×10^6/mL to 2×10^6 cells/mL with cell numbers determined by trypan blue using the Countess Cell counter (Thermo Scientific) and resuspended in culture media. […] Luminescence was read on a Tecan Spark® Multimode Microplate Reader and data analyzed using Graph Pad Prism software. […]

Experiment [6] deals with BT-549 triple-negative breast cancer cells. As to the kind of experiment: TNBC cell viability assay (CellTiter-Glo), BT-549. In kind it is cell-based. To be noted: BT-549 cells, various concentrations. On the procedure: as §2
(§3) Triple-negative breast cancer cell viability was assessed using the ATP-depletion assay CellTiter-Glo (Promega). Briefly, 2.5K cells in […] media (RPMI+10% FBS+1× Penicillin-Streptomycin (Omega Scientific)) were seeded per well of a 384-well tissue culture treated plate (Greiner). 25 nL of 1000× test compound were added using a Labcyte Echo acoustic dispenser and the cells incubated for 5 days before addition of […] of CellTiter-Glo reagent as described by the manufacturer. Luminescence was detected on a BioTek Synergy 2 microplate reader and the values normalized to those of vehicle (DMSO) treated controls before being plotted using GraphPad Prism.

Experiment [7] concerns MDA-MB-468 triple-negative breast cancer cells. Description: TNBC cell viability assay (CellTiter-Glo), MDA-MB-468. It is filed as cell-based. To be noted: MDA-MB-468 cells, various concentrations. The method, then: as §2, §3
Experiment [8] deals with TNBC cells (BT-549 and MDA-MB-468). Description: 11-day colony formation assay. It is filed as cell-based. Particulars: 5, 10, or 20 μM, 11 days. On the procedure:
as §2
MDA-MB-468 and […] triple-negative breast cancer cells were maintained in DMEM+10% FBS supplemented with 1× Penicillin-Streptomycin/L-Glutamine (Omega Scientific). 1.5K cells (in […]) were seeded per well of a standard 24-well tissue culture plate (Falcon) and allowed to adhere for 24 h, before the addition of drug(s) as described. After a further 96 h, media was replaced with fresh media containing the same test compounds and concentrations. After 11 days, media was removed and cells stained with 0.5% Crystal Violet (in 20% methanol) for 20 min with agitation @ 80 rpm. Stain was removed and plates with stained cells were washed by being submerged in excess deionized water and allowed to air dry overnight before imaging.

Experiment [9] concerns MOLM-13-Cas9-mCherry cells with SHP2 KO. As to the kind of experiment: SHP2 CRISPR-Cas9 knockout inhibitor selectivity assay (cell viability). It is filed as cell-based. To be noted: MOLM-13-Cas9-mCherry SHP2 KO cells, 72 h. The method, then:
Finally, we evaluated the selectivity of our top two compounds, #01 and #02, on MOLM-13 AML cells in which SHP2 was depleted using CRISPR-Cas9 knock-out (KO). High-efficiency Cas9-editing MOLM-13 cells were generated by transducingMOLM-13 cells with a Cas9 lentiviral construct. Stable clones were tested for editing efficiency by performing TIDE analysis (45), and these MOLM13-Cas9 cells were transduced with a lentiviral construct containing an AAVS1 single guide RNA (sgRNA) and an mCherry reporter for bulk-sorting of cells with successful AAVS1 editing. SHP2 KO was achieved by transducing MOLM-13-Cas9-mCherry cells with a lentivirus containing SHP2 dual sgRNAs, resulting in ˜80% reduction of SHP2 protein levels (FIG. 3G). #01, #02, and the SHP2 allosteric inhibitor SHP099 were tested in parallel on regular MOLM-13 cells (expressing WT SHP2) and MOLM-13-Cas9-mCherry cells with SHP2 KO. Cells were treated with inhibitors at various concentrations (ranging from […] to 58 nM) or vehicle control (DMSO) for 72 h, before cell viability was assessed.
High-efficiency Cas9-editing MOLM-13 cells were generated by transducing MOLM-13 cells with the pLenti-Cas9-blasticidin construct (Addgene plasmid #52962) and selecting single stable clones using flow-sorting. Clones were then tested for editing efficiency by performing TIDE analysis (45). These MOLM13-Cas9 cells were then transduced with a lentiviral construct containing an AAVS sgRNA and an mCherry reporter out of frame and downstream of an AAVS sgRNA targeting site. […]
For SHP2 KO, dual sgRNAs targeting SHP2 were cloned in the pLentiGuide puro vector (Addgene plasmid #52963) using a published protocol (50). […] SHP2 KO was evaluated by immunoblotting. […] For SHP2 KO, MOLM-13-Cas9-mCherry cells were seeded in nontreated 6-well-plates ([…] in 2.5 mL), with cell numbers determined by trypan blue using the Countess Cell counter (Thermo Scientific). […] Cell viability was assessed using the ATP-depletion assay CellTiter-Glo® (Promega) as described above, and data were analyzed using GraphPad Prism software.

Experiment [10] relates to MLL-AF10 leukemia cells expressing wild-type SHP2. Description: Cell viability assay, MLL-AF10 cells expressing wild-type SHP2. It is filed as cell-based, mouse. On the procedure: (§4) Cell viability assays of SHP099, #01, and #02 against mouse MLL-AF10 leukemia cells were conducted. Two MLL-AF10 cell lines were employed, one expressing wild-type SHP2, and the other expressing E76K mutant SHP2.

Experiment [11] deals with MLL-AF10 leukemia cells expressing E76K mutant SHP2. As to the kind of experiment: Cell viability assay, MLL-AF10 cells expressing E76K mutant SHP2. It is filed as cell-based, mouse. On the procedure:
as §4

As to `Cc1nc(N2CCC3(CC2)CO[C@@H](C)[C@H]3N)c(CO)nc1-c1cccc(Cl)c1Cl` [RMC-4550, reference compound], the “ERK1/2 activation (p-ERK1/2 levels)” value in experiment [1] is reported as “highly effective in impeding ERK1/2 activation”; in [4] it was “a decrease in p-ERK1/2 levels was not detectable”. For the same compound, in experiment [2], the “effect on growth of patient-derived AML samples” value is “only affected the growth of sample 2”. Inhibition in [3] was half-maximal at 33 µM (IC50).
In the case of `CC1(N)CCN(c2cnc(-c3cccc(Cl)c3Cl)c(N)n2)CC1` [SHP099, reference compound], the IC50 in experiment [5] came to 9.4 µM; in [10], 4 µM. Besides, the “effect on TNBC cell viability” value in experiment [6] and in experiment [7] was “very minor effect on TNBC cell viability” each time. Also, in experiment [8], the “effect on colony formation” value is recorded as “very weak effect on colony formation”. Moreover, in [9], the “effect on viability of SHP2 KO cells” value is recorded as “either no effect, or a greatly reduced effect”. In addition, the “cell viability IC50” value in experiment [11] is recorded as “insufficient for an IC50 value to be determined”.
